Results reported in patent US8759333B2, “Di-azetidinyl diamide as monoacylglycerol lipase inhibitors” (Janssen Pharmaceutica, NV, priority 2010, dated 2014).
Substitutions are numbered along the chain they refer to. pIC50, pKd: −log10 of the molar value.

What was measured:
[1] = target: T1, mutant MGL (Homo sapiens, UniProt Q99685, L169S/L176S); test: MGL ThermoFluor Assay - Mutant; assay type: binding; conditions: 0.07 mg/ml mutant MGL, 100 μM ANS, pH 7.0
T1 construct: purified mutant MGL (mut-MGLL 11-313 L179S L186S)
T1 sequence (Q99685 1-303 L169S/L176S): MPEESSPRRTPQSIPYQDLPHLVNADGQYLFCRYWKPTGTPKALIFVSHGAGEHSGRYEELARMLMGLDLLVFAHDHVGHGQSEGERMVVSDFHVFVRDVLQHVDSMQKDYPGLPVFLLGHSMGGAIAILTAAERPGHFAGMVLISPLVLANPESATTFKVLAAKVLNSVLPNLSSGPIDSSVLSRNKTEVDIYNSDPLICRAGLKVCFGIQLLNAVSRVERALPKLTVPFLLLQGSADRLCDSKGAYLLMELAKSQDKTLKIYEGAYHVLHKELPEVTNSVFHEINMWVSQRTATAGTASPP
Summary of the method: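 Thermal-shift binding with 0.07 mg/ml L169S/L176S mutant MGL, 100 μM 1,8-ANS, 200 mM NaCl, 0.001% Tween-20, 50 mM PIPES pH 7.0, heated 40–90 °C at 1 °C/min.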

[2] = target: T2, wild type MGL (wt-MGLL 6H-11-313) (Homo sapiens, UniProt Q99685); test: MGL Enzyme Activity Assay, purified wild type MGL, 4MU-B substrate; assay type: biochemical; conditions: wild type MGL 5 nM, 4MU-B 10 μM, 37° C.; read-out: MGL wild type inh IC50
T2 construct: purified wild type MGL (wt-MGLL 6H-11-313); 6H (hexahistidine) (N)
T2 sequence (Q99685 1-303): T1 sequence (Q99685 1-303 L169S/L176S) with S169L, S176L
Procedure: All rate-based assays were performed in black 384-well polypropylene PCR microplates (Abgene) in a total volume of 30 μL. […] Final compound concentrations ranged from 17 to 0.0003 μM.
The IC50 values for the following compounds were determined using Microsoft Office Excel from a fit of the equation to the concentration-response plot of the fractional activity as a function of inhibitor concentration.

[3] = target: T3, MGL (Rattus norvegicus, UniProt Q8R431); test: 2-AG Accumulation Assay in rat brain homogenate; assay type: biochemical; conditions: percent of vehicle; for activity at 1 µM: compound @1 µM, read-out: Rat Brain 2AG % VehCntrl (%) @1 µM; for activity at 10 µM: compound @10 µM, read-out: Rat Brain 2AG % VehCntrl (%) @10 µM
T3 construct: one g rat brain was homogenized using a Polytron homogenizer; from tissue; host or cells: rat brain homogenate
T3 sequence (Q8R431 1-303): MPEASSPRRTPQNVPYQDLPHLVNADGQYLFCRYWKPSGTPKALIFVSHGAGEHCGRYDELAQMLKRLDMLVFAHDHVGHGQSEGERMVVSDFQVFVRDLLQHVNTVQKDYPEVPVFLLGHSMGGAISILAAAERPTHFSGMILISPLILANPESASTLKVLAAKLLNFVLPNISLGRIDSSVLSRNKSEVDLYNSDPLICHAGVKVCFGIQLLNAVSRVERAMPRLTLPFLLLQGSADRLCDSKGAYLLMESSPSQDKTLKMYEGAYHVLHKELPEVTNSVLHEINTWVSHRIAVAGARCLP

[4] = target: T4, mutant MGL (mut-MGLL 11-313 L179S L186S) (Homo sapiens, UniProt Q99685, L169S/L176S); test: MGL Enzyme Activity Assay, purified mutant MGL, 4MU-B substrate; assay type: biochemical; conditions: mutant MGL 5 nM, 4MU-B 10 μM, 37° C.; read-out: MGL mutant inh IC50
T4 construct: purified mutant MGL (mut-MGLL 11-313 L179S L186S)
T4 sequence (Q99685 1-303 L169S/L176S): T1 sequence (Q99685 1-303 L169S/L176S)
Summary of the method: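 Purified mutant MGL (5 nM final) with 10 μM 4MU-B in 20 mM PIPES pH 7.0, 150 mM NaCl, 0.001% Tween 20; compounds 17 to 0.0003 μM final. Fluorescence (ex 335/em 440 nm) followed 5 min at 37 °C; IC50 from fit of fractional activity versus inhibitor concentration.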

Row | pKd [1] | pIC50 [2] | activity at 1 µM [3] [%] | pIC50 [4] | activity at 10 µM [3] [%] | Structure (SMILES)
1 | 7.70 | > 8.30 | 253 |  |  | O=C(NC1CN(C2CN(C(=O)c3ccc(-c4cccc(C(F)(F)F)c4)cc3F)C2)C1)c1nccs1 [Cpd 64, N-(1′-{[3-Fluoro-3′-(trifluoromethyl)biphenyl-4-yl]carbonyl}-1,3′-biazetidin-3-yl)-1,3-thiazole-2-carboxamide]
2 | 8.48 | > 8.30 | 433 | 8.22 |  | O=C(c1sc2cc(-c3ccccc3)ccc2c1Cl)N1CC(N2CC(N3Cc4ccccc4C3=O)C2)C1 [Cpd 68, 2-{1′-[(3-Chloro-6-phenyl-1-benzothiophen-2-yl)carbonyl]-1,3′-biazetidin-3-yl}-2,3-dihydro-1H-isoindol-1-one]
3 | 7.48 | > 8.30 | 781 | 8.05 |  | CS(=O)(=O)c1cccc(-c2ccc3cc(C(=O)N4CC(N5CC(N6Cc7ccccc7C6=O)C5)C4)sc3c2)c1 [Cpd 72, 2-[1′-({6-[3-(Methylsulfonyl)phenyl]-1-benzothiophen-2-yl}carbonyl)-1,3′-biazetidin-3-yl]-2,3-dihydro-1H-isoindol-1-one]
4 | 7.50 | > 8.30 | 295 | 7.92 |  | O=C(c1sc2cc(Br)ccc2c1Cl)N1CC(N2CC(N3Cc4ccccc4C3=O)C2)C1 [Cpd 73, 2-{1′-[(6-Bromo-3-chloro-1-benzothiophen-2-yl)carbonyl]-1,3′-biazetidin-3-yl}-2,3-dihydro-1H-isoindol-1-one]
5 | 8.89 | > 8.30 | 323 | 7.92 |  | O=C(c1sc2cc(-c3ccccc3)ccc2c1-c1ccccc1)N1CC(N2CC(N3Cc4ccccc4C3=O)C2)C1 [Cpd 74, 2-{1′-[(3,6-Diphenyl-1-benzothiophen-2-yl)carbonyl]-1,3′-biazetidin-3-yl}-2,3-dihydro-1H-isoindol-1-one]
6 | 6.98 | 7.80 | 490 | 7.66 |  | CS(=O)(=O)c1cccc(-c2ccc3sc(C(=O)N4CC(N5CC(N6Cc7ccccc7C6=O)C5)C4)cc3c2)c1 [Cpd 82, 2-[1′-({5-[3-(Methylsulfonyl)phenyl]-1-benzothiophen-2-yl}carbonyl)-1,3′-biazetidin-3-yl]-2,3-dihydro-1H-isoindol-1-one]
7 | 7.48 | 7.68 | 360 |  |  | Cc1c(C(=O)N2CC(N3CC(N4Cc5scnc5C4=O)C3)C2)sc2cc(C(F)(F)F)ccc12 [Cpd 103, 5-(1′-{[3-Methyl-6-(trifluoromethyl)-1-benzothiophen-2-yl]carbonyl}-1,3′-biazetidin-3-yl)-5,6-dihydro-4H-pyrrolo[3,4-d][1,3]thiazol-4-one]

Further lines, the molecule ahead of its results:

Row | Structure (SMILES) | pKd [1] | pIC50 [2] | activity at 1 µM [3] [%] | pIC50 [4] | activity at 10 µM [3] [%]
8 | O=C(NC1CN(C2CN(C(=O)c3ccc4nc(-c5ccccc5)sc4c3)C2)C1)c1nccs1 [Cpd 4, N-{1′-[(2-Phenyl-1,3-benzothiazol-6-yl)carbonyl]-1,3′-biazetidin-3-yl}-1,3-thiazole-2-carboxamide] | 6.84 | 7.89 | 148 | 8.15 | 
9 | O=C(NC1CN(C2CN(C(=O)c3cc4ccc(C(F)(F)F)cc4s3)C2)C1)c1nccs1 [Cpd 7, N-(1′-{[6-(Trifluoromethyl)-1-benzothiophen-2-yl]carbonyl}-1,3′-biazetidin-3-yl)-1,3-thiazole-2-carboxamide] | 8.00 | > 8.30 | 243 | 8.00 | 
10 | O=C(NC1CN(C2CN(C(=O)c3ccc(-c4ccc(C(F)(F)F)s4)cc3)C2)C1)c1nccs1 [Cpd 9, N-[1′-({4-[5-(Trifluoromethyl)thiophen-2-yl]phenyl}carbonyl)-1,3′-biazetidin-3-yl]-1,3-thiazole-2-carboxamide] | 7.85 | 6.30 | 193 | 7.89 | 160
11 | O=C(NC1CN(C2CN(C(=O)c3ccc(-c4ccc(C(F)(F)F)cc4)cc3)C2)C1)c1nccs1 [Cpd 12, N-(1′-{[4′-(Trifluoromethyl)biphenyl-4-yl]carbonyl}-1,3′-biazetidin-3-yl)-1,3-thiazole-2-carboxamide] | 7.29 | > 8.30 | 215 | 7.74 | 557
12 | O=C(NC1CN(C2CN(C(=O)c3ccc4c(ccn4-c4ccccc4)c3)C2)C1)c1nccs1 [Cpd 13, N-{1′-[(1-Phenyl-1H-indol-5-yl)carbonyl]-1,3′-biazetidin-3-yl}-1,3-thiazole-2-carboxamide] | 7.30 | > 8.30 | 441 | 7.72 | 
13 | O=C(NC1CN(C2CN(C(=O)c3ccc(-c4ccc(C(F)(F)F)cc4)cc3)C2)C1)c1cscn1 [Cpd 14, N-(1′-{[4′-(Trifluoromethyl)biphenyl-4-yl]carbonyl}-1,3′-biazetidin-3-yl)-1,3-thiazole-4-carboxamide] | 7.07 | 8.05 | 187 | 7.57 | 
14 | O=C(NC1CN(C2CN(C(=O)c3cc4ccc(C(F)(F)F)cc4s3)C2)C1)c1cscn1 [Cpd 49, N-(1′-{[6-(Trifluoromethyl)-1-benzothiophen-2-yl]carbonyl}-1,3′-biazetidin-3-yl)-1,3-thiazole-4-carboxamide] | 7.50 | 7.85 | 167 | > 8.30 | 
15 | O=C(NC1CN(C2CN(C(=O)c3sc4cc(C(F)(F)F)ccc4c3Cl)C2)C1)c1nccs1 [Cpd 50, N-(1′-{[3-Chloro-6-(trifluoromethyl)-1-benzothiophen-2-yl]carbonyl}-1,3′-biazetidin-3-yl)-1,3-thiazole-2-carboxamide] | 9.15 | > 8.30 | 460 | > 8.30 | 
16 | O=C(NC1CN(C2CN(C(=O)c3sc4cc(C(F)(F)F)ccc4c3Cl)C2)C1)c1cscn1 [Cpd 51, N-(1′-{[3-Chloro-6-(trifluoromethyl)-1-benzothiophen-2-yl]carbonyl}-1,3′-biazetidin-3-yl)-1,3-thiazole-4-carboxamide] | 8.66 | > 8.30 | 477 | > 8.30 | 
17 | O=C(NC1CN(C2CN(C(=O)c3ccc4c(cnn4-c4ccccc4)c3)C2)C1)c1nccs1 [Cpd 52, N-{1′-[(1-Phenyl-1H-indazol-5-yl)carbonyl]-1,3′-biazetidin-3-yl}-1,3-thiazole-2-carboxamide] | 7.13 | > 8.30 | 291 | > 8.30 | 
